Experimental data taken from patent publication US6436874B1, “Synergistic herbicidal agents based on leaf herbicides containing phosphorus, imidazolinones and hormone weed killers” (priority 1998, dated 2002).
Where a name gives a salt, the structure may show the parent alone. Read-outs that look alike come from different tables or passages of the source.

Legend:
Format in all cases: in vivo
Hedyotis verticillata = assay: Field trial, herbicidal activity against Hedyotis verticillata in oil palm plantation; settings: Scleromitrion verticillatum; for inhibition at 25 g/ha: read-out: Herbicidal activity (%), w. after appl., No. 11, dose 25 g of AS/ha; for inhibition at 50 g/ha: read-out: Herbicidal activity (%), w. after appl., No. 12, dose 50 g of AS/ha; for inhibition at 80 g/ha: read-out: Herbicidal activity (%), w. after appl., No. 13, dose 80 g of AS/ha
Method: (§1) In an oil palm plantation, the economically important tropical weed Hedyotis verticillata was grown on plots of the dimensions 2×5 m under natural outdoor conditions and treated with the herbicides A1.2, B1 and C1 or their mixtures in a tank mix under standard conditions using a plot sprayer, at a water application rate of 450 liters of water per hectare (over-the-top application to the weeds; plant density initially more than 95% ground coverage). At intervals of 1, 2, 3, 4, 5, 6, 7 and 8 weeks after the application, the herbicidal efficacy of the active compounds or active compound mixtures was evaluated visually on the basis of the treated plots, in comparison with untreated control plots. The damage to and development of all above-ground parts of the plants were recorded. Evaluation was carried out using a percentage scale (100% effect=all plants killed; 50% effect=50% of the plants and the green parts of the plants killed; 0% effect=no noticeable effect=like control plot). The evaluation values of in each case 4 plots were averaged.

Axonopus compressus = assay: Field trial, herbicidal activity against Axonopus compressus in rubber tree plantation; settings: Axonopus compressus, read-out: Activity (%), w. after appl., No. 2, dose 60 g of AS/ha
Method: as §1
In a rubber tree plantation, plots with the tropical weed Axonopus compressus were grown under natural outdoor conditions (plot dimensions 2×5 m). The herbicides or their mixtures in a tank mix were applied under standard conditions using a plot spayer at a water application rate of 450 liters of water per hectare (over-the-top application). At intervals of 4, 7, 13, 17 and 21 weeks after the application, the herbicidal efficacy of the active compounds or active compound mixtures was evaluated visually on the basis of the treated plots, in comparison with untreated control plots. The damage to and development of all above-ground parts of the plants were recorded. Evaluation was carried out as described in Example 1.

Asystasia intrusa = assay: Field trial, herbicidal activity against Asystasia intrusa in rubber tree plantation; settings: Asystasia intrusa, read-out: Activity (%), w. after appl., No. 2, dose 60 g of AS/ha
Method: as §1
In a rubber tree plantation, plots with the tropical weed Asystasia intrusa were grown under natural outdoor conditions (dimensions of the plots 2 x 5 m). The herbicides or their mixtures in a tank mix were applied under standard conditions (over-the-top application using a plot sprayer, water application rate 450 l/ha). In intervals of 4, 7, 13, 17 and 21 weeks after the application, the herbicidal efficacy of the active compounds or their mixtures was evaluated visually on the basis of the treated plots, in comparison with untreated control plots. The damage to and the development of all above-ground parts of the plants were recorded. Evaluation was carried out as described in Example 1.

[1] = test system: Brachiaria mutica, Digitaria horizontalis, Panicum maximum, Echinochloa colona and Ageratum conyzoides; assay: Field trial, herbicidal activity against weeds in sugar cane plantation
Method: as §1, with “Evaluation was carried out using a percentage scale (100% effect=all plants killed; 50% effect=50% of the plants and the green parts of the plants killed; 0% effect=no noticeable effect=like control plot). The evaluation values of in each case 4 plots were averaged.” left out
In a sugar cane plantation, plots with the weeds Brachiaria mutica, Digitaria horizontalis, Panicum maximum, Echinochloa colona and Ageratum conyzoides were grown under natural outdoor conditions (dimensions of the plots 2×5 m). […] Four weeks after the application, the herbicidal efficacy of the active compounds or their mixtures was evaluated visually on the basis of the treated plots, in comparison with untreated control plots. The damage to and development of all above-ground parts of the plants were recorded. […]

CP(=O)(O)CCC(N)C(=O)O (stereo not drawn) [A1.2, Glufosinate-monoammonium salt]
inhibition at 25 g/ha (Hedyotis verticillata; 1 w. after appl.): 35%
inhibition at 25 g/ha (Hedyotis verticillata; 2 w. after appl.): 28%
inhibition at 25 g/ha (Hedyotis verticillata; 3 w. after appl.): 23%
inhibition at 25 g/ha (Hedyotis verticillata; 4 w. after appl.): 20%
inhibition at 25 g/ha (Hedyotis verticillata; 5 w. after appl.): 10%
inhibition at 25 g/ha (Hedyotis verticillata; 6 w. after appl.): 10%
inhibition at 25 g/ha (Hedyotis verticillata; 7 w. after appl.): 10%
inhibition at 25 g/ha (Hedyotis verticillata; 8 w. after appl.): 0%
inhibition at 50 g/ha (Hedyotis verticillata; 1 w. after appl.): 35%
inhibition at 50 g/ha (Hedyotis verticillata; 2 w. after appl.): 25%
inhibition at 50 g/ha (Hedyotis verticillata; 3 w. after appl.): 20%
inhibition at 50 g/ha (Hedyotis verticillata; 4 w. after appl.): 20%
inhibition at 50 g/ha (Hedyotis verticillata; 5 w. after appl.): 10%
inhibition at 50 g/ha (Hedyotis verticillata; 6 w. after appl.): 10%
inhibition at 50 g/ha (Hedyotis verticillata; 7 w. after appl.): 10%
inhibition at 50 g/ha (Hedyotis verticillata; 8 w. after appl.): 0%
inhibition at 80 g/ha (Hedyotis verticillata; 1 w. after appl.): 58%
inhibition at 80 g/ha (Hedyotis verticillata; 2 w. after appl.): 45%
inhibition at 80 g/ha (Hedyotis verticillata; 3 w. after appl.): 40%
inhibition at 80 g/ha (Hedyotis verticillata; 4 w. after appl.): 40%
inhibition at 80 g/ha (Hedyotis verticillata; 5 w. after appl.): 40%
inhibition at 80 g/ha (Hedyotis verticillata; 6 w. after appl.): 30%
inhibition at 80 g/ha (Hedyotis verticillata; 7 w. after appl.): 28%
inhibition at 80 g/ha (Hedyotis verticillata; 8 w. after appl.): 8%
inhibition at 60 g/ha (Axonopus compressus; 4 w. after appl.): 17%
inhibition at 60 g/ha (Axonopus compressus; 7 w. after appl.): 10%
inhibition at 60 g/ha (Axonopus compressus; 13 w. after appl.): 0%
inhibition at 60 g/ha (Axonopus compressus; 17 w. after appl.): 0%
inhibition at 60 g/ha (Axonopus compressus; 21 w. after appl.): 0%
inhibition at 60 g/ha (Asystasia intrusa; 4 w. after appl.): 23%
inhibition at 60 g/ha (Asystasia intrusa; 7 w. after appl.): 5%
inhibition at 60 g/ha (Asystasia intrusa; 13 w. after appl.): 0%
inhibition at 60 g/ha (Asystasia intrusa; 17 w. after appl.): 0%
inhibition at 60 g/ha (Asystasia intrusa; 21 w. after appl.): 0%
inhibition at 300 g/ha ([1]; 672 h, read-out: Herbicidal activity (%)): 72%
Weed coverage (%) ([1]; No. 2, dose 300 g of AS/ha, percent ground coverage, control plot has more than 95% weed coverage): 27%
